Series [1] concerns MCF-7 multicellular tumor spheroids. The series can be described thus: Resazurin assay, MCF-7 3D spheroids. Format: cell-based, human. The settings on record: 96 h; for IC50: spheroids. The procedure, abridged:
(§1)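 Spheroids formed from 400 HCT116, 400 HT29 or 800 MCF-7 cells in ultra-low attachment wells over 96 h, then exposed to serially diluted compounds for 96 h. Resazurin added with 12 h incubation; resorufin fluorescence read at 530 nm (reference 620 nm).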

Series [2] deals with SW480 (colon carcinoma) cells. The series can be described thus: MTT cytotoxicity assay, SW480 monolayer. Format: cell-based, human. The settings on record: exposure time 96 h, mean ± SD. The procedure, abridged:
(§2)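 Monolayer cells seeded at 1 × 10^3 (CH1/PA-1), 2 × 10^3 (SW480), 3 × 10^3 (A549) or 7 × 10^3 (IMR-90) per well, preincubated 24 h, then exposed to serially diluted drug for 96 h. Viability by MTT (4 h), absorbance 550 nm (690 nm reference); IC50 interpolated from concentration-effect curves relative to untreated controls, ≥3 independent experiments.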
In general terms: Tetrazolium dyes change colour on reduction, which living cells bring about.

For series [3], the system named is MCF-7 cells. The series can be described thus: Resazurin assay, MCF-7 2D monolayer. In kind it is cell-based, human. The settings on record: 96 h. The procedure, abridged: (§3)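 Monolayers seeded at 2 × 10^3 (HCT116, HT29) or 4 × 10^3 (MCF-7) cells per well and dosed with serial compound dilutions after 24 h. After 96 h exposure, resazurin added for 4 h; resorufin fluorescence read at 530 nm with 620 nm reference, cell-free blanks subtracted.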
A general note: Alamar Blue is a resazurin reagent that responds to reducing activity.

The subject of series [4] is CH1/PA-1 (ovarian teratocarcinoma) cells. The series can be described thus: MTT cytotoxicity assay, CH1/PA-1 monolayer. In kind it is cell-based, human. Conditions: exposure time 96 h, mean ± SD. The method in brief:
as §2

For series [5], the system named is MCF-7 cells. Kind of series: Annexin V-FITC/PI apoptosis assay, MCF-7. Conditions: MCF-7, 24 h, 200 µM.
Series [6] can be described thus: Solubility in PBS (1% DMSO). In kind it is physicochemical. On the procedure: Stock solutions in DMSO of compounds 1–10 were utilized to determine the solubility in PBS by adding 1 vol% of the stock solution to a suitable amount of PBS. […] UV/Vis data were recorded on a Perkin Elmer Lambda 650 UV/Vis Spectrophotometer with a Peltier element for temperature control.

In series [7] the test system is HCT116 cells. Kind of series: Resazurin assay, HCT116 2D monolayer. In kind it is cell-based, human. Conditions: 96 h. The procedure, abridged:
as §3

Series [8] concerns HCT116 cells. Kind of series: Annexin V-FITC/PI apoptosis assay, HCT116. The settings on record: HCT116, 24 h, 200 µM; for ∑apoptotic cells [%]: sum of early and late. In kind it is cell-based, human.
Series [9] deals with HCT116 multicellular tumor spheroids. The series can be described thus: Resazurin assay, HCT116 3D spheroids. In kind it is cell-based, human. The settings on record: 96 h; for IC50: spheroids. The method in brief:
as §1

Consider two molecules from PMC10384408, “Anticancer Tungstenocenes with a Diverse Set of (O,O–), (O,S–) and (O,N–) Chelates—A Detailed Biological Study Using an Improved Evaluation via 3D Spheroid Models” (Pharmaceutics, 2023).

Turning to `CCc1occc(=O)c1[O-].F[P-](F)(F)(F)(F)F.[W+4].c1cc[cH-]c1.c1cc[cH-]c1` [Compound 9, Bis(η^5-cyclopentadienyl)[2-ethyl-3-(oxo-κO)-4-(1H)-pyran-4-ato-κO] tungsten(IV) hexafluorophosphate], the IC50 in series [1] is over 200 µM; in [2] it was 101 ± 15 µM; in the series on MCF-7 cells [3], 147 ± 15 µM; in [4] it was over 200 µM; in the series on HCT116 cells [7] it was over 200 µM; in [9], over 200 µM. Moreover, the “early apoptotic cells [%] AV+ / PI-” value in the series with MCF-7 cells [5] is 1.6 ± 1.0%; with HCT116 cells [8], 1.5 ± 0.8%. The “late apoptotic cells [%] AV+ / PI+” value in the series on MCF-7 cells [5] worked out at 8.4 ± 5.5%; in the series on HCT116 cells [8], 2.3 ± 0.3%. The “necrotic cells [%] AV- / PI+” value in the series on MCF-7 cells [5] is reported as 2.9 ± 1.8%; in the series with HCT116 cells [8], 2.3 ± 0.4%. Further, the “viable cells [%] AV- / PI-” value in the series on MCF-7 cells [5] turned out to be 87.2 ± 7.2%; in the series with HCT116 cells [8] it was 93.9 ± 0.5%. Also, the “Solubility in PBS (1% DMSO)” value in [6] was 550 µg/mL. In addition, the “∑apoptotic cells [%]” value in the series with HCT116 cells [8] was found to be 3.8%.
Regarding `CCc1occc(=S)c1[O-].F[P-](F)(F)(F)(F)F.[W+4].c1cc[cH-]c1.c1cc[cH-]c1` [Compound 10, Bis(η^5-cyclopentadienyl)[2-ethyl-3-(oxo-κO)-4-(1H)-pyran-4-thionato-κS] tungsten(IV) hexafluorophosphate], in series [1], the “ratio 3D/2D of IC50 values, MCF-7” value is recorded as over 6.9 and the IC50 was over 200 µM. For the same molecule, the IC50 in series [2] came out at 13 ± 1 µM. Besides, the IC50 in the series on MCF-7 cells [3] amounted to 29 ± 4 µM. The molecule also gave an IC50 in [4] of 21 ± 1 µM. For the same molecule, in the series on MCF-7 cells [5], the “early apoptotic cells [%] AV+ / PI-” value was found to be 5.5 ± 3.2%, the “late apoptotic cells [%] AV+ / PI+” value is on record as 46.3 ± 3.2%, the “necrotic cells [%] AV- / PI+” value was determined as 32.4 ± 12.3% and the “viable cells [%] AV- / PI-” value is on record as 15.7 ± 6.0%. For the same molecule, the “Solubility in PBS (1% DMSO)” value in series [6] was determined as 320 µg/mL. The IC50 in the series with HCT116 cells [7] amounted to 42 ± 3 µM. In the series on HCT116 cells [8], the “early apoptotic cells [%] AV+ / PI-” value is 3.8 ± 3.2%, the “late apoptotic cells [%] AV+ / PI+” value is 4.3 ± 3.6%, the “necrotic cells [%] AV- / PI+” value came to 2.4 ± 0.7% and the “viable cells [%] AV- / PI-” value is reported as 89.6 ± 7.5%. Moreover, in the series with HCT116 cells [8], the “∑apoptotic cells [%]” value is given as 8.0%. Moreover, in series [9], the “ratio 3D/2D of IC50 values, HCT116” value came out at 1.6 and the IC50 was 69 ± 12 µM.

Broadly, the IC50 is the concentration needed to halve the response being measured.
